The values below are quoted from earlier work in paper PMC11187573, “Identification of SARS-CoV-2 Mpro inhibitors through deep reinforcement learning for de novo drug design and computational chemistry approaches” (RSC Medicinal Chemistry, 2024).

The data set concerns Mpro. As to conditions: ML dataset, Origin COVID_Moonshot; ref COVID Moonshot; cited from earlier work.
As a reminder, the IC50 is the concentration that gives 50% inhibition. In the case of `CN(C(=O)Cn1nnc2ccccc21)c1ccc(Oc2ccc(C(F)(F)F)cn2)cc1` [AAR-POS-8a4e0f60-7], the IC50 was 37.8 µM. For `COc1cc(Cl)cc(OC(=O)Nc2cccnc2)c1` [AGN-NEW-891393a6-1], the IC50 was 4.1 µM. Consider `CC(C)(C)c1ccc(N(C(=O)c2ccco2)C(C(=O)N2CCOCC2)c2cccnc2)cc1` (stereo not drawn) [ALP-POS-0c0a3b93-1], for which the IC50 is 41 µM. Regarding `CC(C)(C)c1ccc(N(C(=O)C2CCCO2)C(C(=O)NCCc2cccc(F)c2)c2cccnc2)cc1` (stereo not drawn) [ALP-POS-02c6a514-17], the IC50 was 5.56 µM. `Cc1ccncc1C(C(=O)NCCc1cccc(F)c1)N(C(=O)c1ccco1)c1ccc(C(C)(C)C)cc1` (stereo not drawn) [ALP-POS-02c6a514-44]: the IC50 was 0.112 µM. In the case of `CC(C)(C)c1ccc(N(C(=O)c2ncc[nH]2)C(C(=O)NCCc2cccc(F)c2)c2cccnc2)cc1` (stereo not drawn) [ALP-POS-02c6a514-46], the IC50 is 5.29 µM. On to `CC(C)(C)c1ccc(N(C(=O)c2nccs2)C(C(=O)NCCc2cccc(F)c2)c2cccnc2)cc1` (stereo not drawn) [ALP-POS-02c6a514-49], for which the IC50 is 0.8 µM. On to `CC(C)(C)c1ccc(N(C(=O)c2cocn2)C(C(=O)NCCc2cccc(F)c2)c2cccnc2)cc1` (stereo not drawn) [ALP-POS-02c6a514-50], for which the IC50 was 0.557 µM. For `CC(C)(C)c1ccc(N(C(=O)c2ccn[nH]2)C(C(=O)NCCc2cccc(F)c2)c2cccnc2)cc1` (stereo not drawn) [ALP-POS-02c6a514-52], the IC50 was 1.78 µM. Turning to `CC(C)(C)c1ccc(N(C(=O)c2ccco2)C(C(=O)NCCN2CCOCC2)c2cccnc2)cc1` (stereo not drawn) [ALP-POS-02c6a514-55], the 50% inhibitory concentration (IC50) was 2.19 µM. Regarding `CC(C)(C)c1ccc(N(C(=O)c2ccco2)C(C(=O)Nc2ccccc2)c2cccnc2)cc1` (stereo not drawn) [ALP-POS-02c6a514-56], the IC50 was 11.2 µM.

Take `CC(C)(C)c1ccc(N(C(=O)c2ccco2)C(C(=O)NCc2ccccc2)c2cccnc2)cc1` (stereo not drawn) [ALP-POS-02c6a514-57]: the IC50 was 4.36 µM. Turning to `O=C(C[C@@]1(C(=O)Nc2cncc3ccccc23)CCOc2ccc(Cl)cc21)N1CCN(C2CCOC2)CC1` (stereo partly drawn) [ALP-POS-2da19ca7-2], the IC50 is 46.5 µM. `O=C(Cc1cc(Cl)cc(OC2CC(=O)N2)c1)Nc1cncc2ccccc12` (stereo not drawn) [ALP-POS-3b848b35-2, O=C(Cc1cc(Cl)cc(OC2CC(=O)N2)c1)Nc1cncc2ccccc12, reference compound]: the IC50 was 0.18 µM. Regarding `COc1c(Cl)cccc1OCCNC(=O)c1cc(=O)[nH]c2ccccc12` [ALP-POS-3fc1724e-1], the IC50 was 11.5 µM. As for `O=C(CC1(C(=O)Nc2cncc3ccccc23)CCOc2ccc(Cl)cc21)N1CCN(C2CCOC2)CC1` (stereo not drawn) [ALP-POS-5bb456a5-7], the IC50 is 6.68 µM. `O=C(C[C@]1(C(=O)Nc2cncc3ccccc23)CCOc2ccc(Cl)cc21)N1CCN(C2CCOC2)CC1` (stereo partly drawn) [ALP-POS-5bb456a5-8]: the IC50 was 1.99 µM. As to `CN(C)c1ccc(N(Cc2ccccc2)C(=O)Cn2nnc3ccccc32)cc1` [ALP-POS-6d04362c-1], the IC50 was 3.31 µM. Consider `O=C(Cn1nnc2ccccc21)N(Cc1ccsc1)c1ccc(N2CCOCC2)cc1` [ALP-POS-6d04362c-4], for which the IC50 was 16.5 µM.

As for `CN(C)c1ccc(N(Cc2cscn2)C(=O)Cn2nnc3ccccc32)cc1` [ALP-POS-87c86d55-1], the IC50 was 9.57 µM.

Regarding `CCC(=O)Nc1ccc(N(Cc2cscn2)C(=O)Cn2nnc3ccccc32)cc1` [ALP-POS-87c86d55-2], the IC50 was 35.5 µM. As to `CC(C)(C)c1ccc(N(C(=O)c2cocn2)C(C(=O)NCc2cccnc2)c2cccnc2)cc1` (stereo not drawn) [ALP-POS-88a7a97e-4], the IC50 is 25.3 µM. `COC(=O)C(C)NC(=O)C(c1cccnc1)N(C(=O)c1cocn1)c1ccc(C(C)(C)C)cc1` (stereo not drawn) [ALP-POS-88a7a97e-5]: the IC50 was 7.18 µM. With `COC(=O)[C@@H]1CC[C@H](NC(=O)C(c2cccnc2)N(C(=O)c2cocn2)c2ccc(C(C)(C)C)cc2)C1` (stereo partly drawn) [ALP-POS-88a7a97e-6], the IC50 is 2.38 µM. As for `CC(C)(C)c1ccc(N(C(=O)c2cocn2)C(C(=O)NC2CCOCC2)c2cccnc2)cc1` (stereo not drawn) [ALP-POS-88a7a97e-9], the IC50 is 3.9 µM. With `COC(=O)C1CC(NC(=O)C(c2cccnc2)N(C(=O)c2cocn2)c2ccc(C(C)(C)C)cc2)C1` (stereo not drawn) [ALP-POS-88a7a97e-15], the IC50 is 3.99 µM. Turning to `CC(C)(C)c1ccc(N(C(=O)c2cocn2)C(C(=O)NCC2CCOC2)c2cccnc2)cc1` (stereo not drawn) [ALP-POS-88a7a97e-26], the IC50 is 5.42 µM. For the compound `CC(C)(C)c1ccc(N(C(=O)c2cocn2)C(C(=O)NCC2CCCO2)c2cccnc2)cc1` (stereo not drawn) [ALP-POS-88a7a97e-27], the IC50 is 5.15 µM. Regarding `CC(C)(C)c1ccc(N(C(=O)c2cocn2)C(C(=O)NC2CCOC2)c2cccnc2)cc1` (stereo not drawn) [ALP-POS-88a7a97e-30], the 50% inhibitory concentration (IC50) is 2.77 µM. For `COCCNC(=O)C(c1cccnc1)N(C(=O)c1cocn1)c1ccc(C(C)(C)C)cc1` (stereo not drawn) [ALP-POS-88a7a97e-31], the IC50 is 8.46 µM. For `COC(=O)CNC(=O)C(c1cccnc1)N(C(=O)c1cocn1)c1ccc(C(C)(C)C)cc1` (stereo not drawn) [ALP-POS-88a7a97e-33], the 50% inhibitory concentration (IC50) is 10.8 µM.

`CC(C)(C)c1ccc(N(C(=O)c2cocn2)C(C(=O)NC2COC2)c2cccnc2)cc1` (stereo not drawn) [ALP-POS-88a7a97e-34]: the IC50 is 4.07 µM. With `COC(=O)C1(NC(=O)C(c2cccnc2)N(C(=O)c2cocn2)c2ccc(C(C)(C)C)cc2)CCCC1` (stereo not drawn) [ALP-POS-88a7a97e-36], the IC50 was 5.26 µM.

With `CC(C)(C)c1ccc(N(C(=O)c2cocn2)C(C(=O)NC2CC(F)(F)C2)c2cccnc2)cc1` (stereo not drawn) [ALP-POS-88a7a97e-39], the IC50 was 2.35 µM. With `COc1ccc(NC(=O)C(c2cccnc2)N(C(=O)c2cocn2)c2ccc(C(C)(C)C)cc2)cn1` (stereo not drawn) [ALP-POS-88a7a97e-41], the IC50 was 5.37 µM.

Turning to `Cc1ccc(S(=O)(=O)CNC(=O)C(c2cccnc2)N(C(=O)c2cocn2)c2ccc(C(C)(C)C)cc2)cc1` (stereo not drawn) [ALP-POS-88a7a97e-42], the IC50 is 62.9 µM. As to `CC(C)(C)c1ccc(N(C(=O)c2cocn2)C(C(=O)NCC(=O)OCc2ccccc2)c2cccnc2)cc1` (stereo not drawn) [ALP-POS-88a7a97e-44], the IC50 was 9.92 µM. With `CC(C)(C)c1ccc(N(C(=O)c2cocn2)C(C(=O)NCCN2CCOCC2)c2cccnc2)cc1` (stereo not drawn) [ALP-POS-88a7a97e-47], the IC50 is 82.5 µM. For `CCOC(=O)c1ncoc1CNC(=O)C(c1cccnc1)N(C(=O)c1cocn1)c1ccc(C(C)(C)C)cc1` (stereo not drawn) [ALP-POS-88a7a97e-49], the IC50 is 5.88 µM. `CC(C)(C)c1ccc(N(C(=O)c2c[nH]c(=O)s2)C(C(=O)NCCc2cccc(F)c2)c2cccnc2)cc1` (stereo not drawn) [ALP-POS-305f6ec3-2]: the 50% inhibitory concentration (IC50) was 29.1 µM.

Take `CC(C)(C)c1ccc(N(C(=O)c2c[nH]nn2)C(C(=O)NCCc2cccc(F)c2)c2cccnc2)cc1` (stereo not drawn) [ALP-POS-305f6ec3-14]: the IC50 was 1.17 µM.

As to `CC(C)(C)c1ccc(N(C(=O)c2c[nH]c(=O)cn2)C(C(=O)NCCc2cccc(F)c2)c2cccnc2)cc1` (stereo not drawn) [ALP-POS-305f6ec3-33], the concentration for half-maximal inhibition (IC50) is 77.1 µM. With `CC(C)(C)c1ccc(N(C(=O)c2cc(CO)[nH]n2)C(C(=O)NCCc2cccc(F)c2)c2cccnc2)cc1` (stereo not drawn) [ALP-POS-305f6ec3-38], the IC50 was 18.8 µM. With `CC(C)(C)c1ccc(N(C(=O)c2cncs2)C(C(=O)NCCc2cccc(F)c2)c2cccnc2)cc1` (stereo not drawn) [ALP-POS-305f6ec3-41], the IC50 was 24.2 µM. With `Cn1ncc(C(=O)N(c2ccc(C(C)(C)C)cc2)C(C(=O)NCCc2cccc(F)c2)c2cccnc2)n1` (stereo not drawn) [ALP-POS-305f6ec3-46], the IC50 was 17.6 µM.
